The source of these data is PubChem BioAssay (NCI).

Common to all, as to experiment: growth of human tumour cells (NCI), 48 h
In assay [1] the test system is NCI/ADR-RES ovarian.
Assay [2] deals with OVCAR-4 ovarian.
Assay [3] has as its system SNB-19 CNS.
Assay [4] concerns HCC-2998 colon.
For assay [5], the system named is K-562 leukemia.
Assay [6] deals with LOX IMVI melanoma.
The subject of assay [7] is A549 NSCLC.
Assay [8] relates to TK-10 renal.
The test system of assay [9] is SK-MEL-2 melanoma.
For assay [10], the system named is SR leukemia.

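48-hour exposure; five concentrations; linearly interpolated endpoints. The concentration for 50% growth inhibition is given as GI50. TGI: concentration producing complete growth inhibition.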

`COc1ccc(C(=O)C(CN(C)C)c2ccccc2)cc1` (stereo not drawn): the GI50 is 2.7 µM in assay [1]; 5.34 µM in [2]; 11.1 µM in [3]; 2.28 µM in [4]; 4.17 µM in assay [5]; 1.73 µM in assay [6]. For the same molecule, the GI50 is 18.1 µM in assay [7], 3.01 µM in assay [8] and 3.09 µM in assay [9]. The TGI in assay [1] was 6.97 µM; in assay [2], > 100 µM; in assay [3], 23.1 µM; in [4], 3.94 µM; in assay [5] it was > 100 µM; in assay [6], 3.8 µM. Further, the figures for the TGI in [7], in assay [8] and in assay [9] were 96.3 µM, 7.85 µM and 7.97 µM, respectively.
Consider `CC(C)S(=O)(=O)ON1C(=O)c2ccc([N+](=O)[O-])cc2C1=O`, for which the TGI in assay [2], in assay [3], in assay [4], in [5], in [7] and in assay [10] was > 100 µM each time. For the same molecule, the TGI in assay [8] and in assay [9] was > 100 µM throughout.
Take `COc1ccccc1NC(=O)NS(=O)(=O)c1ccccc1`: the TGI in [2], in assay [3], in assay [4], in assay [6], in assay [7] and in assay [8] was > 100 µM each time. The TGI in assay [9] is > 100 µM.
As for `Cc1nc(=O)n2c(c1C(=O)Nc1ccc(Cl)cc1)NCCC2`, the TGI in assay [2], in assay [3], in assay [5], in [6], in [7] and in [10] was > 100 µM in each case. The TGI in [8] and in assay [9] was > 100 µM throughout.
In the case of `CCN(CC)Cc1cc(Nc2c3ccc(Cl)cc3nc3c(C)cccc23)ccc1O`, the GI50 in [1] was 1.08 µM; in [2] it was 1.53 µM; in assay [3], 1.45 µM; in [4], 1.2 µM; in assay [5], 1.16 µM; in assay [6], 1.29 µM. Further, the GI50 in assay [7] was 1.64 µM; in assay [8] it was 2.69 µM; in assay [9], 1.94 µM. Also, the TGI was determined as 3.02 µM in assay [1]; 2.97 µM in [2]; 3.29 µM in [3]; 2.47 µM in [4]; 5.48 µM in assay [5]; 2.61 µM in [6]. Also, the TGI was found to be 4.64 µM in assay [7], 5.59 µM in assay [8] and 3.73 µM in assay [9].
`C/C(CC(=O)Nc1cc(Cl)c(Cl)cc1Cl)=N\NS(=O)(=O)c1ccc(C)cc1`: the TGI in [4] was 86.5 µM; in [5], > 100 µM; in assay [6], > 100 µM; in [7], > 100 µM; in [8] it was > 100 µM; in [9], 86.8 µM.
Turning to `O=C1CCC(=O)C(C(=O)CCC(=O)Nc2ccc(Cl)cc2)C1` (stereo not drawn), the TGI in [2], in [3], in assay [4], in assay [5], in assay [6] and in assay [7] was > 100 µM each time. In addition, the TGI in assay [8] and in assay [9] was > 100 µM in each case.
For `COc1ccc(OC)c(/C=C/C(=O)c2ccc(SC)cc2)c1`, the GI50 was 3.28 µM in [1]; 61.1 µM in [2]; 9.68 µM in assay [3]; 4.81 µM in [4]; 2.72 µM in [5]; 12.3 µM in assay [6]. Besides, the GI50 in assay [7] is 28.9 µM; in [8], 17.9 µM; in assay [9], 6.12 µM. The TGI is 11.8 µM in [1]; > 100 µM in assay [2]; 46.5 µM in [3]; 17.1 µM in assay [4]; 7.44 µM in assay [5]; 28 µM in assay [6]. The TGI in assay [7] is > 100 µM; in [8] it was 65.7 µM; in [9], 20.4 µM.
As to `NC(=O)COc1ccc(Br)cc1Br`, the TGI in assay [3], in assay [5], in assay [7], in assay [10] and in assay [9] was > 100 µM each time.
Turning to `COC(=O)CCCCCCCCC(=O)c1c(C)[nH]c(/C=C2\N=C(c3ccc[nH]3)C=C2OC)c1C`, the GI50 was 24.2 µM in [1]; > 85.9 µM in assay [2]; 59.1 µM in assay [3]; > 26.9 µM in [4]; 1.08 µM in assay [5]; 0.207 µM in assay [6]. Besides, the GI50 is 5.18 µM in assay [7], > 100 µM in [8] and 8.85 µM in assay [9]. The TGI in assay [1] was > 100 µM; in assay [2] it was > 100 µM; in [3], > 100 µM; in assay [4], > 100 µM; in [5], > 34.2 µM; in assay [6], 0.466 µM. Further, the TGI in assay [7] was > 50.2 µM; in assay [8], > 100 µM; in assay [9] it was > 29.1 µM.
Take `CC1(C)CC(=O)C=C(NC(=O)c2ccccc2)C1`: the TGI in assay [2], in assay [3], in assay [4], in assay [5], in [6] and in assay [7] was > 100 µM each time. Also, the TGI in assay [8] and in assay [9] was > 100 µM in each case.
In the case of `c1cc[c]([Sn]([O]c2cccc3cccnc23)([c]2ccccc2)[c]2ccccc2)cc1`, the GI50 in assay [2] was 0.0146 µM; in assay [3] it was 0.04 µM; in [4], 0.0236 µM; in assay [5] it was < 0.01 µM; in assay [6] it was 0.0132 µM; in assay [7], 0.0184 µM. Further, the GI50 is 0.0229 µM in assay [8] and 0.0217 µM in assay [9]. In addition, the TGI is 0.0343 µM in assay [2]; 0.127 µM in [3]; 0.0625 µM in [4]; 0.0521 µM in assay [5]; 0.0261 µM in assay [6]; 0.0427 µM in [7]. For the same molecule, the TGI in assay [8] was 0.0693 µM; in assay [9], 0.059 µM.
